# Results taken from publication PMC9394284, “Discovery of Novel Dual Adenosine A2A and A1 Receptor Antagonists with 1H-Pyrazolo[3,4-d]pyrimidin-6-amine Core Scaffold as Anti-Parkinson’s Disease Agents” (Pharmaceuticals, 2022).
# pIC50: −log10 of the molar value.
# Columns and labels:
# A2A adenosine receptor = A2A adenosine receptor (Homo sapiens, UniProt P29274); experiment: cyclic AMP HTRF functional assay, HEK-293 (A2A); format: cell-based; settings: HEK-293 cells
# Procedure: Next, the functional activity of 11o against A1 and A2A adenosine receptors was evaluated using c-AMP assay in CHO-K1 (A1) and HEK-293 (A2A) cells.
# For functional studies, A1 and A2A receptor cyclic AMP HTRF (homogeneous time resolved fluorescence) assay was performed at EuroscreenFast (Charleroi, Belgium) using CHO-K1 (A1) and HEK293 (A2A) stable cell line with CPA (A1) and NECA (A2A) as reference agonist and DPCPX (A1) and ZM241385 (A2A) as reference antagonist compound.
# [1] = metabolic stability in cryopreserved rat hepatocytes
# Procedure: Metabolic stability of 11o was determined in cryopreserved hepatocytes from mice, rats, dogs, monkeys and human according to the SOPs of Frontage Laboratories Inc. Briefly, cryopreserved hepatocytes for pre-clinical animals and for human (BioIVT, Westbury, NY, USA) were thawed in a 37 °C water bath with gentle shaking until ice had almost melted. The suspensions were immediately transferred to a centrifuge tube (50 mL) containing pre-warmed thawing media at 37 °C with gentle handshaking to prevent the cells from settling. Cell suspensions were centrifuged at 50× g and 4 °C for 5 min. The supernatant was discarded and the pellets were resuspended in prewarmed incubation media (5 mL) at 37 °C. The percentage of viable cells in the suspension was determined by Trypan blue staining method to ensure viability of ≥70 %. […] The samples were centrifuged and aliquots of the supernatant were analyzed for parent compounds by LC/MS/MS using suitable multiple reaction monitoring (MRM) transitions. […] The disappearance of 11o and midazolam was monitored by LC/MS/MS (MRM) analysis of the hepatocyte extracts at each time point. The peak area ratio of the analyte to internal standard was obtained for each sample and the rate of disappearance of 11o was assessed by comparing the peak area ratios at various time points to the peak area ratio obtained at t = 0. The t1/2 is obtained (using the linear portion of semi-log plot of the area ratio vs. time) and the CLint values determined using well-stirred model.
# [2] = Sprague Dawley, rat, cryopreserved hepatocytes in suspension
# Sequence of A2A adenosine receptor (P29274 whole entry): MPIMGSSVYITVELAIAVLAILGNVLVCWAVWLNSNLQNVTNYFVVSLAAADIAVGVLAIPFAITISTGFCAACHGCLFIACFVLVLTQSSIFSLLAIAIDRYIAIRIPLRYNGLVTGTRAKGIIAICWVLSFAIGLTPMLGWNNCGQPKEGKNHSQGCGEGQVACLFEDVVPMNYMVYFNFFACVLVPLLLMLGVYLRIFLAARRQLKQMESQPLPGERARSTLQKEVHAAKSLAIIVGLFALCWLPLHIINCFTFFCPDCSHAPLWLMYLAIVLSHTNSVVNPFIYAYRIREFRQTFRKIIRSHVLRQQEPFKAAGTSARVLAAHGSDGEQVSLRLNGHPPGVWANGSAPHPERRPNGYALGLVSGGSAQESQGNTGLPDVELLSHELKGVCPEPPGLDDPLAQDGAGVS
smiles,measurement,setting,value
"Cc1cc(Cn2ncc3c(-c4cccc(C#N)c4F)nc(N)nc32)ccc1N [11o, 3-(6-Amino-1-(4-amino-3-methylbenzyl)-1H-pyrazolo[3,4-d]pyrimidin-4-yl)-2-fluorobenzonitrile]",functional activity at A2A receptor,A2A adenosine receptor,full antagonism
same,pIC50,"A2A adenosine receptor; read-out: IC50, A2A functional antagonism (c-AMP)",6.87
same,CLint scaled at 1 μM,[1]; [2],69.2 mL/min/kg
same,half-life at 1 μM,[1]; [2],46.9 min
same,hepatocyte CLint at 1 μM,[1]; [2],14.8 µL/min/1e6 cells
same,Intrinsic Clearance,"[1]; rat hepatocytes, 1 μM 11o",0.0148 mL/min/10^6 Cells
